Columns and labels:
[1] = target: Ephrin type-A receptor 7 (Homo sapiens) (UniProt Q15375); details: Compound concentration 100.0 nM
[2] = target: Protein-tyrosine kinase 2-beta (Homo sapiens) (UniProt Q14289); details: Compound concentration 100.0 nM
[3] = target: Phosphatidylinositol 4-phosphate 5-kinase type-1 gamma (Homo sapiens) (UniProt O60331); details: Compound concentration 100.0 nM
[4] = target: Inhibitor of nuclear factor kappa-B kinase subunit beta (Homo sapiens) (UniProt O14920); details: Compound concentration 100.0 nM
Sequence of Inhibitor of nuclear factor kappa-B kinase subunit beta (Homo sapiens) (O14920 whole entry): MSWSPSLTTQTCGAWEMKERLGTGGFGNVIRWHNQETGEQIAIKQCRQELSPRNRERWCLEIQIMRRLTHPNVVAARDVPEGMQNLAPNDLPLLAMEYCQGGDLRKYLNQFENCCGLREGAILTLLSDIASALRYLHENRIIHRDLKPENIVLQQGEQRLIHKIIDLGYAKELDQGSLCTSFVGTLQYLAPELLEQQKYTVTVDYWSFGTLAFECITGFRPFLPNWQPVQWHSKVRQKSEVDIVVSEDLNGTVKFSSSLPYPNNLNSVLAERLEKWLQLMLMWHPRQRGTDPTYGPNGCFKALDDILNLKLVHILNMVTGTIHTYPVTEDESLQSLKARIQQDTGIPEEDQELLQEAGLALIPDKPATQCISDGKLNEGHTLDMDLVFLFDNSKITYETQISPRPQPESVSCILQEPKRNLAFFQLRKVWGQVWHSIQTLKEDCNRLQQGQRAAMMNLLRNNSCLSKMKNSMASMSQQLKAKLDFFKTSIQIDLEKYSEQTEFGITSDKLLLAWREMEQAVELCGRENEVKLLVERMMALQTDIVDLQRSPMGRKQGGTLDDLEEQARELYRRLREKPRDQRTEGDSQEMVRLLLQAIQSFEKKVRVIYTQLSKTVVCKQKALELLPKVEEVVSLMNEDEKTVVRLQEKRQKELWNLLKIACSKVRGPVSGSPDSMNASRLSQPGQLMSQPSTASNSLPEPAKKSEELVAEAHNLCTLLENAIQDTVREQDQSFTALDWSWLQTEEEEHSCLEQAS

[5] = target: Calcium/calmodulin-dependent protein kinase type 1G (Homo sapiens) (UniProt Q96NX5); details: Compound concentration 100.0 nM
Sequence of Calcium/calmodulin-dependent protein kinase type 1G (Homo sapiens) (Q96NX5 whole entry): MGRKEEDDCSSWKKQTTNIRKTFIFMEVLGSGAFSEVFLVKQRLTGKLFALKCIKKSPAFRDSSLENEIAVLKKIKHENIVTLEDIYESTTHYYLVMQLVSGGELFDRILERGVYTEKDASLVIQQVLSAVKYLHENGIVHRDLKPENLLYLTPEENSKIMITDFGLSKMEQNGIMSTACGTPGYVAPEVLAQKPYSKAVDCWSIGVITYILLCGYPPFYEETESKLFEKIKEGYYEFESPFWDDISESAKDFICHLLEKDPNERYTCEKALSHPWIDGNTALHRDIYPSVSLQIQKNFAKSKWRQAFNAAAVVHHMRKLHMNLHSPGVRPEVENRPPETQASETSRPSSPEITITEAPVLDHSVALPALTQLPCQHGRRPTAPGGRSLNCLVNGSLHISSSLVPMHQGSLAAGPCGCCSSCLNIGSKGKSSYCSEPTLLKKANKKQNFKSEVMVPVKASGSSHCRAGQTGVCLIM

[6] = target: Tyrosine-protein kinase Fer (Homo sapiens) (UniProt P16591); details: Compound concentration 100.0 nM
[7] = target: Serine/threonine-protein kinase SIK3 (Homo sapiens) (UniProt Q9Y2K2); details: Compound concentration 100.0 nM
[8] = system: Tyrosine-protein kinase ABL1 (Homo sapiens), P00519 [Q252H]; details: Compound concentration 100.0 nM
[9] = target: TRAF2 and NCK-interacting protein kinase (Homo sapiens) (UniProt Q9UKE5); details: Compound concentration 100.0 nM
[10] = target: Phosphatidylinositol 4,5-bisphosphate 3-kinase catalytic subunit gamma isoform (Homo sapiens) (UniProt P48736); details: Compound concentration 100.0 nM
Sequence of Phosphatidylinositol 4,5-bisphosphate 3-kinase catalytic subunit gamma isoform (Homo sapiens) (P48736 whole entry, looked up, canonical isoform): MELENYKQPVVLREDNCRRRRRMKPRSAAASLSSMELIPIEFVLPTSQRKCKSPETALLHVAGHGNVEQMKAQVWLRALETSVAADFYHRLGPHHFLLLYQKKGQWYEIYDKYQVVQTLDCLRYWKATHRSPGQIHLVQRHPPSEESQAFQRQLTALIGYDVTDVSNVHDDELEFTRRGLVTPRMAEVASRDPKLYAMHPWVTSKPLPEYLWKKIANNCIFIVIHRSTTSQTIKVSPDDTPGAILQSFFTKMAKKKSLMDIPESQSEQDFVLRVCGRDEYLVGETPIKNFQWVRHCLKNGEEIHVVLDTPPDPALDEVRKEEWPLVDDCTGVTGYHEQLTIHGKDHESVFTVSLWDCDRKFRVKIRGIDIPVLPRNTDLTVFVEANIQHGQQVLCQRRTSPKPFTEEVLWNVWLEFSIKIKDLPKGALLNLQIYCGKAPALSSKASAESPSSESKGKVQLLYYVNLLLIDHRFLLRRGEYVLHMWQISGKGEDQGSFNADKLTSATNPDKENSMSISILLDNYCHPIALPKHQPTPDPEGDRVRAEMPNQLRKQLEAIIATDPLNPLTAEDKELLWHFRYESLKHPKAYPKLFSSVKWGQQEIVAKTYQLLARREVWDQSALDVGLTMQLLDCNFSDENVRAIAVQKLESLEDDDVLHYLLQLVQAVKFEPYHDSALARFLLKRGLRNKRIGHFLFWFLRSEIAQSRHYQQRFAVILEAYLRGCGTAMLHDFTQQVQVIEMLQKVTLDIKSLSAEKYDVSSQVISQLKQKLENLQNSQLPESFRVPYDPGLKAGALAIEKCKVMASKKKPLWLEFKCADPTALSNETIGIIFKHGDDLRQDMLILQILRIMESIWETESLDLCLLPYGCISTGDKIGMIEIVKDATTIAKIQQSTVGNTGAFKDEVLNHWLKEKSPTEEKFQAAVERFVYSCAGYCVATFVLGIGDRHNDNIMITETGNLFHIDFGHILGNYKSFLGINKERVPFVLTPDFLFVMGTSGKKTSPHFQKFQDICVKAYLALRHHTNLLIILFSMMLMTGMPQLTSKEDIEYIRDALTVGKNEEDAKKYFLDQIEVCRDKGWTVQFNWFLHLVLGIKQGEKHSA

[11] = target: Cyclin-dependent kinase 17 (Homo sapiens) (UniProt Q00537); details: Compound concentration 100.0 nM
[12] = target: Serine/threonine-protein kinase PLK3 (Homo sapiens) (UniProt Q9H4B4); details: Compound concentration 100.0 nM
[13] = target: Serine/threonine-protein kinase TAO2 (Homo sapiens) (UniProt Q9UL54); details: Compound concentration 100.0 nM
[14] = target: Macrophage colony-stimulating factor 1 receptor (Homo sapiens) (UniProt P07333); details: Compound concentration 100.0 nM
[15] = target: SRSF protein kinase 1 (Homo sapiens) (UniProt Q96SB4); details: Compound concentration 100.0 nM
[16] = system: ALK tyrosine kinase receptor (Homo sapiens), Q9UM73 [C1156Y]; details: Compound concentration 100.0 nM
[17] = target: Ribosomal protein S6 kinase alpha-4 (Homo sapiens) (UniProt O75676); details: Compound concentration 100.0 nM
[18] = target: ALK tyrosine kinase receptor (Homo sapiens) (UniProt Q9UM73); details: Compound concentration 100.0 nM
Sequence of ALK tyrosine kinase receptor (Homo sapiens) (Q9UM73 19-1620 limits assumed): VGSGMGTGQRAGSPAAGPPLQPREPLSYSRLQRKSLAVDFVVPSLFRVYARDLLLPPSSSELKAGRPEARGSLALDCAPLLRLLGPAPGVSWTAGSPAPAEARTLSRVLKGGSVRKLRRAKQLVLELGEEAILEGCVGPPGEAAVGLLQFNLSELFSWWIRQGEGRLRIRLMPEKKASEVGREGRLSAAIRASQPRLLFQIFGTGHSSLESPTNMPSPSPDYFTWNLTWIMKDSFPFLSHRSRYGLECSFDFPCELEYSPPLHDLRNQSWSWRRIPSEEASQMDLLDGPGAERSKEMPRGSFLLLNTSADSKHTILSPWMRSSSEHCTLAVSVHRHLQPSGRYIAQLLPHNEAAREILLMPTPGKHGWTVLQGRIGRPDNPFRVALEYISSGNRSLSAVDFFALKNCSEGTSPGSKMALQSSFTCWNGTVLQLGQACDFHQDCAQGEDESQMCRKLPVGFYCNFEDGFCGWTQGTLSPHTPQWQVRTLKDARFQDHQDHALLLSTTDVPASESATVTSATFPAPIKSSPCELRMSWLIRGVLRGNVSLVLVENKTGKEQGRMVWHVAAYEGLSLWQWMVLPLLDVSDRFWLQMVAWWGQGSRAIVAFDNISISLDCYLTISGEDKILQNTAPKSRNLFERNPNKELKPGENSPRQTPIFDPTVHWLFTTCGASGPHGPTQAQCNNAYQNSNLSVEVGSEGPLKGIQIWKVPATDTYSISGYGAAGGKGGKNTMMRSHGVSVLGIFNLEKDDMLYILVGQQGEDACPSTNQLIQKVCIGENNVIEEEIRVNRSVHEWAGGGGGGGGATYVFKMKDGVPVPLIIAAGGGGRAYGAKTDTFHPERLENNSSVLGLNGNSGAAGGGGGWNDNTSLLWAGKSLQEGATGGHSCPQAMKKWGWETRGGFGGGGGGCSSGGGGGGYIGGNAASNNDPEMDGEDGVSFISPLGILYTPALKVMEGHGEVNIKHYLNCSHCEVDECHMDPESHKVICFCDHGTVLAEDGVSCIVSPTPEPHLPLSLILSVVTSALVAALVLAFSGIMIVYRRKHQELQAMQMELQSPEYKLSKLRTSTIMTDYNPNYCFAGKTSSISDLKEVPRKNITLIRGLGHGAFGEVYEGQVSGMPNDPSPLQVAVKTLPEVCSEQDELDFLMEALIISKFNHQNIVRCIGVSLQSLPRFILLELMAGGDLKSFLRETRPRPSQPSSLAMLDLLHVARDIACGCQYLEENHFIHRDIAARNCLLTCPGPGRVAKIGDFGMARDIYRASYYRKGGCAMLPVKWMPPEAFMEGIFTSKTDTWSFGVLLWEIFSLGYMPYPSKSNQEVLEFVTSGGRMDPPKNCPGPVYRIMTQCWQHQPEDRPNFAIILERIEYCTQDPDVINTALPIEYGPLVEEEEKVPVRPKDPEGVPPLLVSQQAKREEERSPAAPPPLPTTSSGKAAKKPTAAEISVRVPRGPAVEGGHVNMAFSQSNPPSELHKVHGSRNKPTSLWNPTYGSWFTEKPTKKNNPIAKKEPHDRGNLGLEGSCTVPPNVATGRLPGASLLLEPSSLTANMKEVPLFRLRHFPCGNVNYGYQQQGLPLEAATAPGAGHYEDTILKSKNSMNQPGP

[19] = target: Microtubule-associated serine/threonine-protein kinase 1 (Homo sapiens) (UniProt Q9Y2H9); details: Compound concentration 100.0 nM
[20] = target: Serine/threonine-protein kinase B-raf (Homo sapiens) (UniProt P15056); details: Compound concentration 100.0 nM
[21] = target: Casein kinase I isoform epsilon (Homo sapiens) (UniProt P49674); details: Compound concentration 100.0 nM
[22] = target: Dual specificity protein kinase TTK (Homo sapiens) (UniProt P33981); details: Compound concentration 100.0 nM
[23] = target: Transient receptor potential cation channel subfamily M member 6 (Homo sapiens) (UniProt Q9BX84); details: Compound concentration 100.0 nM
[24] = target: Tyrosine-protein kinase Fyn (Homo sapiens) (UniProt P06241); details: Compound concentration 100.0 nM
[25] = target: Tyrosine-protein kinase Yes (Homo sapiens) (UniProt P07947); details: Compound concentration 100.0 nM
Sequence of Tyrosine-protein kinase Yes (Homo sapiens) (P07947 2-543 limits assumed): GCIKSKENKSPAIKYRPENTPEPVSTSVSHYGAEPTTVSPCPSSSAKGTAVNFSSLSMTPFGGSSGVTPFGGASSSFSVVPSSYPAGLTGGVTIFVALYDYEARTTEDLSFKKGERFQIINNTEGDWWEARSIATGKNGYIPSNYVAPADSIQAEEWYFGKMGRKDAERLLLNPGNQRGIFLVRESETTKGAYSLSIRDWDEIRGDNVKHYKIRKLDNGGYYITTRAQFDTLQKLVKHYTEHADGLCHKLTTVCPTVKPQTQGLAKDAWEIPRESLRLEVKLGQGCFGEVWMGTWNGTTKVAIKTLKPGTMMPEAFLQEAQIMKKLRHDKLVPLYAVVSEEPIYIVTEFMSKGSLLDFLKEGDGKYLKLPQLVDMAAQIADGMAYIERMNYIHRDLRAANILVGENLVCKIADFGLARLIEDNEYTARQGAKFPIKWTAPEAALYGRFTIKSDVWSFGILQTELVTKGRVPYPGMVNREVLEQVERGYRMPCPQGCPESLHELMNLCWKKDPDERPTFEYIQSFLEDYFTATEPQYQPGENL

[26] = target: Beta-3 adrenergic receptor (Homo sapiens) (UniProt P13945); details: Compound concentration 10.0 uM
[27] = target: Serine/threonine-protein kinase ULK3 (Homo sapiens) (UniProt Q6PHR2); details: Compound concentration 100.0 nM
[28] = target: 3-phosphoinositide-dependent protein kinase 1 (Homo sapiens) (UniProt O15530); details: Compound concentration 100.0 nM
[29] = target: Receptor tyrosine-protein kinase erbB-4 (Homo sapiens) (UniProt Q15303); details: Compound concentration 100.0 nM
[30] = target: Epithelial discoidin domain-containing receptor 1 (Homo sapiens) (UniProt Q08345); details: Compound concentration 100.0 nM
[31] = target: Tyrosine-protein kinase JAK2 (Homo sapiens) (UniProt O60674); details: Compound concentration 100.0 nM
[32] = target: Insulin receptor-related protein (Homo sapiens) (UniProt P14616); details: Compound concentration 100.0 nM
[33] = target: Bone morphogenetic protein receptor type-1B (Homo sapiens) (UniProt O00238); details: Compound concentration 100.0 nM
[34] = target: Serine/threonine-protein kinase PAK 5 (Homo sapiens) (UniProt Q9P286); details: Compound concentration 100.0 nM
[35] = target: Serine/threonine-protein kinase Nek3 (Homo sapiens) (UniProt P51956); details: Compound concentration 100.0 nM
Sequence of Serine/threonine-protein kinase Nek3 (Homo sapiens) (P51956 whole entry): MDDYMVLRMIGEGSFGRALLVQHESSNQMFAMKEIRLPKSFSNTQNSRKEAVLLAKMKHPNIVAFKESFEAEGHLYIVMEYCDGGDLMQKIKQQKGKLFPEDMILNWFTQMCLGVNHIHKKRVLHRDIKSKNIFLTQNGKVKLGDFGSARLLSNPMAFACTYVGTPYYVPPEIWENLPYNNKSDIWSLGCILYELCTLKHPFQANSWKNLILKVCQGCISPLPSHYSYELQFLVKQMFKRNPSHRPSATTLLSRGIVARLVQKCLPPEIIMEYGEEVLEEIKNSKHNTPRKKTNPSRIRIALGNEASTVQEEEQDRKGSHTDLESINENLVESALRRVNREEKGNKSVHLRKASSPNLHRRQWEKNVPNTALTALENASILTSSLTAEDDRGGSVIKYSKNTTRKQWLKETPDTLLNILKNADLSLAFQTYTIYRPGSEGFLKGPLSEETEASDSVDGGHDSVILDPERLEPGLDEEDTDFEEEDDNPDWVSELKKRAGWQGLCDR

[36] = target: Fibroblast growth factor receptor 3 (Homo sapiens) (UniProt P22607); details: Compound concentration 100.0 nM
[37] = target: Mitogen-activated protein kinase kinase kinase 20 (Homo sapiens) (UniProt Q9NYL2); details: Compound concentration 100.0 nM
[38] = target: Ephrin type-B receptor 3 (Homo sapiens) (UniProt P54753); details: Compound concentration 100.0 nM
[39] = target: Phosphatidylinositol 4-kinase beta (Homo sapiens) (UniProt Q9UBF8); details: Compound concentration 100.0 nM
[40] = system: Hepatocyte growth factor receptor (Homo sapiens), P08581 [M1250T]; details: Compound concentration 100.0 nM
[41] = target: Serine/threonine-protein kinase 3 (Homo sapiens) (UniProt Q13188); details: Compound concentration 100.0 nM
[42] = target: Serine/threonine-protein kinase Nek4 (Homo sapiens) (UniProt P51957); details: Compound concentration 100.0 nM
[43] = target: Serine/threonine-protein kinase 26 (Homo sapiens) (UniProt Q9P289); details: Compound concentration 100.0 nM
[44] = target: Glycogen synthase kinase-3 alpha (Homo sapiens) (UniProt P49840); details: Compound concentration 100.0 nM

COCCOc1nc(-c2ccc(Cl)nc2)nc2c1CN(C(=O)c1ncn3ccccc13)CC2 [THPP-1]
inactive: residual activity [1] 100% | residual activity [2] 100% | residual activity [3] 67% | residual activity [4] 100% | residual activity [5] 100% | residual activity [6] 100% | residual activity [7] 100% | residual activity [8] 81% | residual activity [9] 100% | residual activity [10] 100% | residual activity [11] 100% | residual activity [12] 100% | residual activity [13] 99% | residual activity [14] 100% | residual activity [15] 86% | residual activity [16] 100% | residual activity [17] 86% | residual activity [18] 91% | residual activity [19] 100% | residual activity [20] 100% | residual activity [21] 100% | residual activity [22] 100% | residual activity [23] 100% | residual activity [24] 100% | residual activity [25] 100% | inhibition [26] 1.51% | residual activity [27] 81% | residual activity [28] 90% | residual activity [29] 80% | residual activity [30] 100% | residual activity [31] 100% | residual activity [32] 100% | residual activity [33] 100% | residual activity [34] 100% | residual activity [35] 100% | residual activity [36] 100% | residual activity [37] 100% | residual activity [38] 100% | residual activity [39] 100% | residual activity [40] 71% | residual activity [41] 100% | residual activity [42] 100% | residual activity [43] 100% | residual activity [44] 100%

CC(C)CC(=O)N1CCc2nc(-c3ccc(Br)cc3)nc(N(C)Cc3ccccc3)c2C1 [THPP-1-NC]
inactive: residual activity [1] 99% | residual activity [2] 100% | residual activity [3] 85% | residual activity [4] 100% | residual activity [5] 100% | residual activity [6] 100% | residual activity [7] 100% | residual activity [8] 88% | residual activity [9] 100% | residual activity [10] 100% | residual activity [11] 100% | residual activity [12] 100% | residual activity [13] 97% | residual activity [14] 100% | residual activity [15] 99% | residual activity [16] 100% | residual activity [17] 74% | residual activity [18] 91% | residual activity [19] 100% | residual activity [20] 100% | residual activity [21] 100% | residual activity [22] 100% | residual activity [23] 100% | residual activity [24] 100% | residual activity [25] 100% | inhibition [26] 12.3% | residual activity [27] 89% | residual activity [28] 100% | residual activity [29] 94% | residual activity [30] 100% | residual activity [31] 100% | residual activity [32] 100% | residual activity [33] 100% | residual activity [34] 100% | residual activity [35] 100% | residual activity [36] 100% | residual activity [37] 100% | residual activity [38] 100% | residual activity [39] 100% | residual activity [40] 70% | residual activity [41] 100% | residual activity [42] 100% | residual activity [43] 100% | residual activity [44] 100%
